This is an account of results in patent publication US8470828B2, “Anellated pyridine compounds” (Hoffmann-La Roche Inc., priority 2010, dated 2013).

The structures appear in SMILES notation.

One data set addresses T1, human D2 receptor (Homo sapiens, UniProt P14416).
T1 construct: expressed in transfected cells; host or cells: HEK293 EBNA cells, transient transfection; membrane preparation
Put plainly: Radioligand binding to cloned human D2 receptor expressed in HEK-293 EBNA cells ([3H]-spiperone). The note with it: HEK293 EBNA cell membranes, approximately 0.7 nM [3H]-spiperone, 1 h at RT.

A further data set deals with human D3 receptor (Homo sapiens, UniProt P35462). Kind of data set: Radioligand binding to cloned human D3 receptor expressed in HEK-293 EBNA cells ([3H]-spiperone).
Chain of human D3 receptor (P35462 whole entry): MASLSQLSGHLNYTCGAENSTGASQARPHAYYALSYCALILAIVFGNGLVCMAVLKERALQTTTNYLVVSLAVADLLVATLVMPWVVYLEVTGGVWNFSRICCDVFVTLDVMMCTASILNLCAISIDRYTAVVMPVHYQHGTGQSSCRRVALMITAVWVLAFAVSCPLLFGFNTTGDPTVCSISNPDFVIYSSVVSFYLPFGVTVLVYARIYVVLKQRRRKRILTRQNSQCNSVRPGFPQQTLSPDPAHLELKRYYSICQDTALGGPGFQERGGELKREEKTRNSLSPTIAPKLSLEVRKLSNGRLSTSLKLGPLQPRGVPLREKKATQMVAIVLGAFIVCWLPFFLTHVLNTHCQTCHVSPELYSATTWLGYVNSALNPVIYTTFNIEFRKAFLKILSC
For another data set, the target named is human 5-HT2A receptor (Homo sapiens, UniProt P28223). Put plainly: Radioligand binding to cloned human 5-HT2A receptor expressed in HEK-293 EBNA cells ([3H]-ketanserin).
Chain of human 5-HT2A receptor (P28223 whole entry): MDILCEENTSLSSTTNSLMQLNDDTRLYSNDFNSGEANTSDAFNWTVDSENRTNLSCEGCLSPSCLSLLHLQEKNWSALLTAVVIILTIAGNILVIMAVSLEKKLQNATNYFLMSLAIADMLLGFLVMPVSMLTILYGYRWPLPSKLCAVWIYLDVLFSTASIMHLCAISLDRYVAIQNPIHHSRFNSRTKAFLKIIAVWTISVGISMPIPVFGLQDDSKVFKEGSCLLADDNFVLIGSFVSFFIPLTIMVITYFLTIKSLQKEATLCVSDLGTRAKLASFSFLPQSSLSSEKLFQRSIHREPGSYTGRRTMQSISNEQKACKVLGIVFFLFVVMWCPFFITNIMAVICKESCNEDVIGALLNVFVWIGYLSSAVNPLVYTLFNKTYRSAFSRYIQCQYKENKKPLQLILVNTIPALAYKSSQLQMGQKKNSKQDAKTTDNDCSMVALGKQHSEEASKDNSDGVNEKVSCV

Broadly, the Ki is a dissociation constant, usually derived from enzyme kinetics or from competition with a known ligand. The term melting point denotes the temperature of the solid-liquid transition.

T1 sequence (P14416 whole entry): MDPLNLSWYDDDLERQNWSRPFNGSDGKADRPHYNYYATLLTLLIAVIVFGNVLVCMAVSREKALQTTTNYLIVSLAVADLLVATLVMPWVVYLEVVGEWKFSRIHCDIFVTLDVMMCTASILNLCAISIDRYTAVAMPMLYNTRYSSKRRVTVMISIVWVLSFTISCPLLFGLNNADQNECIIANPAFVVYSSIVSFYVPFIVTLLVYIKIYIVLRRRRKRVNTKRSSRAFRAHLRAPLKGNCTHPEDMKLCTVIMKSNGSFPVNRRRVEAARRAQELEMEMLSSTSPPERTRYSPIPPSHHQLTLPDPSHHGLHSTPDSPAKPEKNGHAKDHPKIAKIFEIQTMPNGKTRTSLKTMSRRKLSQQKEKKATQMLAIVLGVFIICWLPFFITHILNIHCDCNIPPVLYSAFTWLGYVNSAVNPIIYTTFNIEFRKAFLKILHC
Experimental for human D2 receptor: HEK293 EBNA cells were transiently transfected with expression plasmids encoding for the human D2 or D3 or for the human 5-HT2A receptor, respectively. The cells were harvested 48 h post-transfection, washed three times with cold PBS and stored at −80° C. prior to use. The pellet was suspended in cold 50 mM Tris-HCl buffer comprising 10 mM EDTA (pH 7.4) and was homogenized with a Polytron (Kinematica A G, Basel, Switzerland) for 20-30 sec at 12.000 rpm. After centrifugation at 48.000×g for 30 min at 4° C., the pellet was resuspended in cold 10 mM Tris-HCl buffer comprising 0.1 mM EDTA (pH 7.4), homogenized, and centrifuged as above. This pellet was further resuspended in a smaller volume of ice cold 10 mM Tris-HCl buffer comprising 0.1 mM EDTA (pH 7.4) and homogenized with a Polytron for 20-30 sec at 12.000 rpm. The protein content of this homogenate was determined with the Bio-Rad (Bradford) Protein Assay (Biorad Laboratories GmbH, München, Germany) according to the instructions of the manufacturer using gamma globulin as the standard. This homogenate was stored at −80° C. in aliquots and thawed immediately prior to use.
Aliquots of membrane preparations were thawed at RT, resupended in assay buffer (D2, D3: 50 mM Tris-HCl, 120 mM NaCl, 5 mM MgCl2, 1 mM EDTA, 5 mM KCl, 1.5 mM CaCl2, pH=7.4; 5-HT2A: 50 mM Tris-HCl, 10 mM MgCl2, 1 mM EGTA, pH=7.4), homogenized with a Polytron for 20-30 sec at 12.000 rpm and adjusted to a final concentration of approximately 7.5 μg protein/well (D2, D3) and 15 μg protein/well (5-HT2A), respectively.
The binding affinity (Ki) of the compounds was determined using radioligand binding. Membranes were incubated in a total volume of 200 μl with a fixed concentration of radioligand (final concentration approximately 0.7 nM [^3H]-spiperone for D2, 0.5 nM [^3H]-spiperone for D3, and 1.1 nM [^3H]-ketanserin for 5-HT2A) and ten concentrations of test compound in ranging between 10 μM-0.1 nM for 1 h at RT. At the end of the incubation, the reaction mixtures were filtered on to unifilter 96-well white microplates with bonded GF/C filters (Packard BioScience, Zürich, Switzerland; preincubated for 1 h in 0.1% polyethylenimine (PEI) in assay buffer) with a Filtermate 196 harvester (Packard BioScience) and washed 3 times with cold assay buffer. The nonspecific binding was determined with equally composed reaction mixtures in the presence of 10 μM unlabelled spiperone. Per well 45 μl of Microscint 40 (Perkin Elmer, Schwerzenbach, Switzerland) was added, plates for sealed, shaken for 20 min and counted for 3 min on a Topcount Microplate Scintillation Counter (Can berra Packard S A, Zürich, Switzerland) with quenching correction.
The CPM value for each duplicate of a concentration of competing compound was averaged (y1), then the % specific binding was calculated according to the equation (((y1−non-specific)/(total binding−non-specific))×100). Graphs were plotted with the % specific binding using XLfit, a curve fitting program that iteratively plots the data using Levenberg-Marquardt algorithm. The single site competition analysis equation used was y=A+((B−A)/(1+((x/C)D))), where y is the % specific binding, A is the minimum y, B is the maximum y, C is the IC50, x is the log 10 of the concentration of the competing compound and D is the slope of the curve (the Hill Coefficient). […] The affinity constant (Ki) was calculated using the Cheng-Prusoff equation Ki=(IC50/1+([L]/Kd), where [L] is the concentration of radioligand and Kd is the dissociation constant of the radioligand at the receptor as determined by the saturation isotherm.

On to `CO[C@@H]1CC[C@@H](CC(=O)N[C@H]2CC[C@H](CCN3CCN(c4nccc5ccsc45)CC3)CC2)C1` (racemic) [Example 5, 2-(trans-3-Methoxy-cyclopentyl)-N-{trans-4-[2-(4-thieno[2,3-c]pyridin-7-yl-piperazin-1-yl)-ethyl]cyclohexyl}-acetamide], for which the Ki was 433 nM on human D2 receptor, 10 nM at human D3 receptor and 7.7 nM at human 5-HT2A receptor.
Take `O=C(CC1COCCO1)N[C@H]1CC[C@H](CCN2CCN(c3nccc4ccoc34)CC2)CC1` (mixture of isomers) [Example 15, trans-2-rac-[1,4]Dioxan-2-yl-N-{4-[2-(4-furo[2,3-c]pyridin-7-yl-piperazin-1-yl)-ethyl]-cyclohexyl}-acetamide]: the melting point came out at 193 °C. Besides, the Ki at human D2 receptor worked out at 975 nM. The affinity at human D3 receptor corresponds to a Ki of 9.32 nM. Further, the affinity on human 5-HT2A receptor corresponds to a Ki of 8.16 nM.
As to `O=C(CC1CCCO1)N[C@H]1CC[C@H](CCN2CCN(c3nccc4c3OCC4)CC2)CC1` (mixture of isomers) [Example 29, trans-N-(4-{2-[4-(2,3-Dihydro-furo[2,3-c]pyridin-7-yl)-piperazin-1-yl]-ethyl}-cyclohexyl)-2-rac-(tetrahydro-furan-2-yl)-acetamide], the melting point stood at 173.5 °C. The same compound came in with a Ki at human D2 receptor of 354 nM. Moreover, at human D3 receptor, the affinity, expressed as Ki, was 9.31 nM. This compound also came in with an inhibition constant (Ki) on human 5-HT2A receptor of 45.2 nM.
`O=C(N[C@H]1CC[C@H](CCN2CCN(c3nccc4c3OCC4)CC2)CC1)C(O)C(F)(F)F` (mixture of isomers) [Example 58, trans-N-(4-{2-[4-(2,3-Dihydro-furo[2,3-c]pyridin-7-yl)-piperazin-1-yl]-ethyl}-cyclohexyl)-(RS)-3,3,3-trifluoro-2-hydroxy-propionamide] gave a melting point of 185 °C. This compound also registered an inhibitory constant (Ki) at human D2 receptor of 712 nM. Further, affinity at human D3 receptor was put at a Ki of 13.9 nM. This compound also displayed an inhibitory constant (Ki) on human 5-HT2A receptor of 32.9 nM.
Take `CC(=O)N[C@H]1CC[C@H](CCN2CCN(c3nccc4ccsc34)CC2)CC1` [Example 1, N-{trans-4-[2-(4-Thieno[2,3-c]pyridin-7-yl-piperazin-1-yl)-ethyl]-cyclohexyl}-acetamide]: the inhibition constant Ki at human D2 receptor amounted to 392 nM; at human D3 receptor, 2.3 nM; on human 5-HT2A receptor, 11.9 nM.
With `CCC(=O)N[C@H]1CC[C@H](CCN2CCN(c3nccc4ccsc34)CC2)CC1` [Example 2, N-{trans-4-[2-(4-Thieno[2,3-c]pyridin-7-yl-piperazin-1-yl)-ethyl]-cyclohexyl}-propionamide], the Ki on human D2 receptor is 229 nM; at human D3 receptor it was 1.9 nM; on human 5-HT2A receptor, 9.2 nM.
As to `COCCC(=O)N[C@H]1CC[C@H](CCN2CCN(c3nccc4ccsc34)CC2)CC1` [Example 3, 3-Methoxy-N-{trans-4-[2-(4-thieno[2,3-c]pyridin-7-yl-piperazin-1-yl)-ethyl]-cyclohexyl}-propionamide], the values for the Ki at human D2 receptor, on human D3 receptor and on human 5-HT2A receptor were 401 nM, 1.9 nM and 10.6 nM, respectively.
Consider `CO[C@H]1CC[C@H](CC(=O)N[C@H]2CC[C@H](CCN3CCN(c4nccc5ccsc45)CC3)CC2)CC1` [Example 4, 2-(trans-4-Methoxy-cyclohexyl)-N-{trans-4-[2-(4-thieno[2,3-c]pyridin-7-yl-piperazin-1-yl)-ethyl]-cyclohexyl}-acetamide], for which the results for the inhibition constant Ki on human D2 receptor, at human D3 receptor and at human 5-HT2A receptor were 739 nM, 14 nM and 9.6 nM, respectively.
The compound `O=C(Cc1ccc2c(c1)OCO2)N[C@H]1CC[C@H](CCN2CCN(c3nccc4c3OCC4)CC2)CC1` [Example 80, trans-2-Benzo[1,3]dioxol-5-yl-N-(4-{2-[4-(2,3-dihydro-furo[2,3-c]pyridin-7-yl)-piperazin-1-yl]-ethyl}-cyclohexyl)-acetamide] gave a melting point of 187 °C. For the same compound, on human D3 receptor, the inhibition constant Ki was 6.08 nM. At human 5-HT2A receptor, this compound registered a Ki of 48.5 nM.
